Legend:
Mus musculus [1] = test: In vivo effect of compound on VEGF-induced angiogenesis in blood volume of mice; type: functional
Mus musculus [2] = test: In vivo effect of compound on VEGF-induced angiogenesis in blood vessels of mice; type: functional

Question: How did the Blood volume (Mus musculus [1]) turn out when `CN(C(=O)c1c(O)c2ccccc2n(C)c1=O)c1ccccc1` [ROQUINIMEX] was run?
Answer: <0.33 HB g ml-1

Question: What about the Activity (Mus musculus [2]) of the same compound?
Answer: <3.48%

Reference: ChEMBL document CHEMBL1134182, “Modified synthesis and antiangiogenic activity of linomide” (2001)
